Where two headings read alike, the source gives them in different places. A value given as a limit tells only on which side of the number the result lay.

The target of one assay is Recombinant Cat D (Homo sapiens (Human), UniProt P07339). The experiment in a line: In vitro enzymatic Cathepsin D (Cat D) FRET assay. It counts as biochemical. The note with it: read-out: IC50 IP (μM) CatD. The essentials:
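Recombinant Cat D expressed in CHO cells, assayed in 0.05 M citrate pH 3.5 with 5 mM CHAPS and 10% DMSO final. Reaction started with 20 nM FRET peptide substrate, incubated one hour, then stopped by Tris buffer to neutral pH; fluorescence read at ex 500/em 580 nm.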

A further assay addresses human recombinant BACE2 (Homo sapiens (Human), UniProt Q9Y5Z0). The experiment in a line: In vitro enzymatic BACE2 FRET assay. The format is biochemical. Particulars: read-out: IC50 IP (μM) BACE2 enzyme. As to the method: These recombinant proteins were further purified using Ni-NTA affinity chromatography (Qiagen). […] This assay is effectively started by the addition of FRET substrate (50 nM) and the combination is incubated for one hour. The FRET assay is terminated by addition of Tris buffer, which raises the pH to neutrality, and the fluorescence is determined. The FRET substrate is a peptide with commercially available fluorophore and quencher, on opposite sides of the BACE cleavage site. Proteolytic cleavage of the FRET substrate releases quenching of fluorescence (excitation 488 nm and emission 590 nm).

A further assay has as its target human recombinant BACE1 (Homo sapiens (Human), UniProt P56817). Nature of the assay: In vitro enzymatic BACE1 FRET assay. It counts as biochemical. Particulars: read-out: IC50 IP (μM) BACE1 enzyme. The gist of the method: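 Fluorescence from cleavage of a quenched peptide spanning the BACE site (50 nM) was read at 488 nm excitation, 590 nm emission. Purified enzyme (Ni-NTA) and compound reacted for one hour before a Tris stop shifted pH to neutral.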

In assay [1] the test system is Aβ40 in conditioned medium of cells stably expressing Amyloid Precursor Protein (APP). The experiment in a line: In vitro BACE-1 cell-based assay (Aβ40 sandwich ELISA). Particulars: read-out: IC50 IP (μM) BACE1 cell. The essentials:
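Aβ40 in supernatants measured by time-resolved fluorescence sandwich ELISA, with pAb40 as capture and biotin-6E10 as detector antibody, each incubated at 4 °C.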
On the technique in general: ELISA stands for enzyme-linked immunosorbent assay.

Sequence of human recombinant BACE1 (P56817 46-501): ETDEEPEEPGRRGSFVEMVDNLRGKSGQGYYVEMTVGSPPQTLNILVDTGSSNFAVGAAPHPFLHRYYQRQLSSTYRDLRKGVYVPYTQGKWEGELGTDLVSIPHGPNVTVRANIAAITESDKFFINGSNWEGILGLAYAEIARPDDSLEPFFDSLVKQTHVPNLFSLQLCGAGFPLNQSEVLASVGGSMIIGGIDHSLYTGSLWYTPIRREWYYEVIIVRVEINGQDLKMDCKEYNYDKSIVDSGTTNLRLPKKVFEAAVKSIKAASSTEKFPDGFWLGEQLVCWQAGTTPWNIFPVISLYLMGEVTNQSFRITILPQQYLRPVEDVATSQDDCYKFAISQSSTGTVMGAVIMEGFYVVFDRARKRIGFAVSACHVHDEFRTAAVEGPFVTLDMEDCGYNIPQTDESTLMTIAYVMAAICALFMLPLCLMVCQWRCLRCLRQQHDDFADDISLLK
Sequence of human recombinant BACE2 (Q9Y5Z0 63-518): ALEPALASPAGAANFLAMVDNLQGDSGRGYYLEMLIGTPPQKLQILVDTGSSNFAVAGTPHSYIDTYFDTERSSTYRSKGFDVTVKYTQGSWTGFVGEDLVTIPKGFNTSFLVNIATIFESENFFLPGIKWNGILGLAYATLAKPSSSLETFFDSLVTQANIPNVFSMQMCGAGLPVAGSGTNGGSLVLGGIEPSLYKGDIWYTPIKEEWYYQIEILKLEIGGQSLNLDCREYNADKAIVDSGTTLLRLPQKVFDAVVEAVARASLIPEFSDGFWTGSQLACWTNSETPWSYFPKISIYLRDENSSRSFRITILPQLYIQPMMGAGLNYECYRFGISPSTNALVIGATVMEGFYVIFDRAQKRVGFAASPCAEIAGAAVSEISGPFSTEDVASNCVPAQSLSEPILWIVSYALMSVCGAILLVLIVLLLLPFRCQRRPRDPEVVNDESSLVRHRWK
Sequence of Recombinant Cat D (P07339 65-412): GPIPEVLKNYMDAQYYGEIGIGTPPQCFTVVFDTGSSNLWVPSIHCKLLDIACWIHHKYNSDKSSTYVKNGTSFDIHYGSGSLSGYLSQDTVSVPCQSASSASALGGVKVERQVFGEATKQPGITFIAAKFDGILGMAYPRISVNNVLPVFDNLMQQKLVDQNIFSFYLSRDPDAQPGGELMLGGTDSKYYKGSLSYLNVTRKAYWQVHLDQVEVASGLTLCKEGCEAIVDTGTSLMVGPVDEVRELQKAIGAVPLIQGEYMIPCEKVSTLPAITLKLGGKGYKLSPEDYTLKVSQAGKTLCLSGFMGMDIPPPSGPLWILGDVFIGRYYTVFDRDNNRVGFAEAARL

In the case of `Cc1nc(OCc2ncco2)cnc1C(=O)Nc1cc(F)c(F)c([C@@]2(C)N=C(N)S[C@@]3(C(F)F)C[C@@H]23)c1` [Example 860, N-(3-((1S,5S,6S)-3-amino-1-(difluoromethyl)-5-methyl-2-thia-4-azabicyclo[4.1.0]hept-3-en-5-yl)-4,5-difluorophenyl)-3-methyl-5-(1,3-oxazol-2-ylmethoxy)-2-pyrazinecarboxamide], the IC50 worked out at 1010 µM on Recombinant Cat D, 0.0286 µM on human recombinant BACE2, 0.00276 µM on human recombinant BACE1 and 0.00853 µM in assay [1].

As for `C[C@]1(c2cc(Nc3ncnc4cc(OCc5ncco5)cnc34)cnc2F)N=C(N)S[C@]2(CO)[C@H]1C2(F)F` [Example 664, ((1S,5S,6R)-3-amino-7,7-difluoro-5-(2-fluoro-5-((7-(1,3-oxazol-2-ylmethoxy)pyrido[3,2-d]pyrimidin-4-yl)amino)-3-pyridinyl)-5-methyl-2-thia-4-azabicyclo[4.1.0]hept-3-en-1-yl)methanol], the IC50 at Recombinant Cat D was over 400 µM; on human recombinant BACE2 it was 0.046 µM; on human recombinant BACE1, 0.000274 µM; in assay [1], 0.0143 µM.

As for `C#CCOc1cnc(C(=O)Nc2cc(F)c(F)c([C@@]3(C)N=C(N)S[C@@]4(CF)C[C@H]43)c2)c(C)c1` [Example 684, N-(3-((1S,5S,6S)-3-amino-1-(fluoromethyl)-5-methyl-2-thia-4-azabicyclo[4.1.0]hept-3-en-5-yl)-4,5-difluorophenyl)-3-methyl-5-(2-propyn-1-yloxy)-2-pyridinecarboxamide], the IC50 on Recombinant Cat D came out at 1040 µM; at human recombinant BACE2, 0.0332 µM; at human recombinant BACE1, 0.00146 µM; in assay [1], 0.00684 µM.

For the compound `C#CCOc1cnc(C(=O)Nc2ccc(F)c([C@@]3(C)N=C(N)S[C@@]4(CF)C[C@H]43)c2)c(C)n1` [Example 829, N-(3-((1S,5S,6S)-3-amino-1-(fluoromethyl)-5-methyl-2-thia-4-azabicyclo[4.1.0]hept-3-en-5-yl)-4-fluorophenyl)-3-methyl-5-(2-propyn-1-yloxy)-2-pyrazinecarboxamide], the IC50 turned out to be 354 µM at Recombinant Cat D, 0.00801 µM at human recombinant BACE2, 0.000776 µM on human recombinant BACE1 and 0.0019 µM in assay [1].

For the compound `C#C[C@H](C)Oc1cnc(C(=O)Nc2cc(F)c(F)c([C@@]3(C)N=C(N)S[C@@]4(C#N)C[C@H]43)c2)cn1` [Example 1011, N-(3-((1S,5S,6S)-3-amino-1-cyano-5-methyl-2-thia-4-azabicyclo[4.1.0]hept-3-en-5-yl)-4,5-difluorophenyl)-5-(((1S)-1-methyl-2-propyn-1-yl)oxy)-2-pyrazinecarboxamide], the IC50 on Recombinant Cat D stood at 741 µM; at human recombinant BACE2 it was 0.00908 µM; on human recombinant BACE1 it was 0.000465 µM; in assay [1], 0.00353 µM.

Take `C#C[C@H](C)Oc1cnc(C(=O)Nc2cc(F)c(F)c([C@@]3(C)N=C(N)S[C@@]4(C(F)F)C[C@@H]34)c2)c(C)n1` [Example 617, N-(3-((1S,5S,6S)-3-amino-1-(difluoromethyl)-5-methyl-2-thia-4-azabicyclo[4.1.0]hept-3-en-5-yl)-4,5-difluorophenyl)-3-methyl-5-(((1S)-1-methyl-2-propyn-1-yl)oxy)-2-pyrazinecarboxamide]: the half-inhibitory concentration (IC50) on Recombinant Cat D is over 400 µM; on human recombinant BACE2, 0.158 µM; at human recombinant BACE1, 0.00357 µM; in assay [1], 0.0652 µM.

Take `C[C@]1(c2cc(Nc3nccc4[nH]c(=O)cnc34)cc(F)c2F)N=C(N)S[C@@]2(C(F)F)C[C@@H]12` [Example 896, 5-((3-((1S,5S,6S)-3-amino-1-(difluoromethyl)-5-methyl-2-thia-4-azabicyclo[4.1.0]hept-3-en-5-yl)-4,5-difluorophenyl)amino)pyrido[3,4-b]pyrazin-2(1H)-one]: the half-inhibitory concentration (IC50) at Recombinant Cat D came to 128 µM; at human recombinant BACE2, 0.0223 µM; on human recombinant BACE1 it was 0.018 µM; in assay [1], 0.135 µM.

Take `COc1cnc2c(Nc3ccc(F)c([C@@]4(CF)N=C(N)S[C@H]5CC54)c3)ncnc2c1` (stereo in doubt) [Example 88, N-(3-((1S,5S,6S)-3-amino-5-(fluoromethyl)-2-thia-4-azabicyclo[4.1.0]hept-3-en-5-yl)-4-fluorophenyl)-7-methoxypyrido[3,2-d]pyrimidin-4-amine]: the IC50 at Recombinant Cat D (Cathepsin D FRET enzyme assay) was over 400 µM; on human recombinant BACE2 (BACE2 FRET enzyme assay), 0.137 µM; on human recombinant BACE1 (BACE1 FRET enzyme assay), 0.0416 µM; in assay [1] (BACE1 cell-based assay), 0.0264 µM.

In the case of `C[C@H](Oc1cnc2c(Nc3cc(F)c(F)c([C@@]4(C)N=C(N)S[C@@]5(C#N)C[C@H]54)c3)nccc2n1)c1ncco1` [Example 939, (1S,5S,6S)-3-amino-5-(2,3-difluoro-5-((2-((1S)-1-(1,3-oxazol-2-yl)ethoxy)pyrido[3,4-b]pyrazin-5-yl)amino)phenyl)-5-methyl-2-thia-4-azabicyclo[4.1.0]hept-3-ene-1-carbonitrile], the IC50 turned out to be 209 µM on Recombinant Cat D, 0.127 µM at human recombinant BACE2, 0.000867 µM at human recombinant BACE1 and 0.165 µM in assay [1].

Take `C#CCOc1cnc2c(Nc3cc(F)c(F)c([C@@]4(C)N=C(N)S[C@@]5(C#N)C[C@H]54)c3)nccc2n1` [Example 916, (1S,5S,6S)-3-amino-5-(2,3-difluoro-5-((2-(2-propyn-1-yloxy)pyrido[3,4-b]pyrazin-5-yl)amino)phenyl)-5-methyl-2-thia-4-azabicyclo[4.1.0]hept-3-ene-1-carbonitrile]: the IC50 on Recombinant Cat D came out at 84.2 µM; at human recombinant BACE2, 0.00399 µM; on human recombinant BACE1, 0.000515 µM; in assay [1], 0.00974 µM.

For the compound `C[C@]1(c2cc(Nc3nccc4cc(C#N)cnc34)cnc2F)N=C(N)S[C@H]2C[C@H]21` [Example 641, 8-((5-((1S,5S,6S)-3-amino-5-methyl-2-thia-4-azabicyclo[4.1.0]hept-3-en-5-yl)-6-fluoro-3-pyridinyl)amino)-1,7-naphthyridine-3-carbonitrile], the IC50 turned out to be 1430 µM on Recombinant Cat D, 0.00815 µM on human recombinant BACE2, 0.0188 µM at human recombinant BACE1 and 0.00799 µM in assay [1].

As to `CCNC(=O)[C@]12C[C@H]1[C@@](C)(c1cc(NC(=O)c3cnc(OCC(F)(F)F)cn3)ccc1F)N=C(N)S2` [Example 977, (1S,5S,6S)-3-amino-N-ethyl-5-(2-fluoro-5-(5-(2,2,2-trifluoroethoxy)pyrazine-2-carboxamido)phenyl)-5-methyl-2-thia-4-azabicyclo[4.1.0]hept-3-ene-1-carboxamide], the IC50 at Recombinant Cat D is 577 µM; on human recombinant BACE2 it was 0.0876 µM; on human recombinant BACE1, 0.000782 µM; in assay [1], 0.00439 µM.

For `C[C@]1(c2cc(NC(=O)c3cnc(OCC(F)(F)F)cn3)cc(F)c2F)N=C(N)S[C@@]2(C#N)C[C@H]21` [Example 940, N-(3-((1S,5S,6S)-3-amino-1-cyano-5-methyl-2-thia-4-azabicyclo[4.1.0]hept-3-en-5-yl)-4,5-difluorophenyl)-5-(2,2,2-trifluoroethoxy)-2-pyrazinecarboxamide], the IC50 at Recombinant Cat D came to 1390 µM; on human recombinant BACE2 it was 0.0224 µM; on human recombinant BACE1, 0.004 µM; in assay [1], 0.015 µM.

For `COC[C@]12C[C@H]1[C@@](C)(c1cc(NC(=O)c3c[nH]c(=O)cn3)cc(F)c1F)N=C(N)S2` [Example 1027, N-(3-((1S,5S,6S)-3-amino-1-(methoxymethyl)-5-methyl-2-thia-4-azabicyclo[4.1.0]hept-3-en-5-yl)-4,5-difluorophenyl)-5-oxo-4,5-dihydro-2-pyrazinecarboxamide], the IC50 on Recombinant Cat D was determined as 981 µM; on human recombinant BACE2, 0.0565 µM; at human recombinant BACE1, 0.0196 µM; in assay [1] it was 0.136 µM.

For orientation: IC50 means the point on the concentration scale where inhibition reaches its midpoint.
